Measurements as given in paper PMC9368981, “The γ-Core Motif Peptides of AMPs from Grasses Display Inhibitory Activity against Human and Plant Pathogens” (International Journal of Molecular Sciences, 2022).
Where a SMILES comes first, the peptide text is derived from it. Where no end group is shown, it is not given here.

Tests used:
C. albicans cells = experiment: Propidium iodide staining, fluorescence microscopy; format: cell-based, Candida albicans; details: peptide 300 µM, 30 °C, 1 h, 0.03 mM PI 15 min
Protocol: (§1) Their ability to disturb the integrity of pathogen membranes was assayed by staining with propidium iodide of C. albicans and Cr. neoformans cells preliminarily incubated with the peptides. The results were visualized by fluorescent microscopy and quantified by flow cytometry (Figure 5, Figure 6 and Figure 7).
(§2) Staining of yeast cells with propidium iodide in the presence of the γ-core peptides was carried out according to the protocol described earlier. C. albicans or Cr. neoformans cells (24 h culture in YPD-P at a cell concentration of 2 × 10^8/mL) were incubated with the peptide at a concentration of 300 µM at 30 °C for 1 h. After incubation, 1 mL of the cells was stained with 0.03 mM propidium iodide (Sigma, St. Louis, MO, USA). The staining proceeded for 15 min at 30 °C. The fluorescence was recorded on an AXIO Imager A1 fluorescence microscope (ZEISS, Göttingen, Germany) using a Zeiss filter set 56 HE.

Cr. neoformans cells [1] = experiment: Propidium iodide staining, fluorescence microscopy; format: cell-based, Cryptococcus neoformans; details: peptide 300 µM, 30 °C, 1 h, 0.03 mM PI 15 min
Protocol: as §1, §2

[2] = tested on: Candida albicans VKM Y-2994; format: cell-based
Protocol: (§3) The antimicrobial activity of synthetic peptides was tested against a panel of human and plant pathogens. Among them were the yeasts Candida albicans VKM Y-2994 and Cryptococcus neoformans VKM Y-2755, the plant pathogenic bacteria Clavibacter michiganensis subsp. michiganensis VKM Ac-1403, Pseudomonas savastanoi pv. savastanoi VKM B-1546 and Pectobacterium carotovorum subsp. carotovorum VKM B-1247, and four Fusarium species (F. oxysporum VKM F-137, F. culmorum VKM F-2303, F. solani VKM F-142 and F. verticillioides VKM F-670), which cause diseases in plants and humans. The antimicrobial activity was first measured at the peptide concentration of 300 µM (Figure 3).
(§4) The antimicrobial activity of synthetic peptides was tested against the yeasts Candida albicans VKM Y-2994 and Cryptococcus neoformans VKM Y-2755, the bacteria Pseudomonas savastanoi pv. savastanoi VKM B-1546, Pectobacterium carotovorum subsp. carotovorum VKM B-1247 and Clavibacter michiganensis subsp. michiganensis VKM Ac-1403, and four Fusarium species: F. culmorum VKM F-2303, F. oxysporum VKM F-137, F. solani VKM F-142 and F. verticillioides VKM F-670. All cultures were obtained from the All-Russian Collection of Microorganisms (VKM). The details of the production and storage of cultures of microorganisms used in this study are described at the VKM Home page. Antimicrobial assays were accomplished according to the procedure described earlier. In short, yeasts were grown on the YPD-P medium and the bacteria P. carotovorum and Cl. michiganensis were cultured on a modified YPD-P medium. The Fusarium fungi were grown on potato dextrose agar at 25 °C for 7–8 days, and spores were washed off from the surface of the mycelia with sterile, distilled water. The antimicrobial activity of the peptides was measured in immunoassay microtiter plates according to the protocol of Broekaert et al.. With yeasts and bacteria, each well contained 10 µL of the tested peptide solution (final concentrations of 10–300 µM) in water, 80 µL of the medium and 10 µL of the microbial suspension. The plates were incubated at 30 °C for 24 h, and the absorbance of the suspension was measured on an Efos 9305 spectrophotometer (Sapphire, Moscow, Russia) at 594 nm. For Fusarium species, the wells of a microtiter plate were filled with 90 µL of the fungal spore suspension in half-strength potato dextrose broth at a concentration of 2000–3000 spores in 100 µL and 10 µL of aqueous solutions of peptides at final concentrations of 10–300 µM. After 38 h of incubation, the absorbance was recorded at 595 nm on a FilterMax F5 Multi-Mode Microplate Reader (Molecular Devices, San Jose, CA, USA). Antimicrobial activity is expressed in IC50 values, which show the concentration necessary for 50% inhibition of the pathogen growth; this was determined from a graph showing the activity dependence on peptide concentration.
(§5) For each pathogen, experiments on the peptide antimicrobial activity evaluation were carried out in triplicate per treatment. Mean values, standard deviations (SD), and the significance of differences (p ≤ 0.05) of the means between treatments and controls (t-test for independent variables) were determined using STATISTICA v. 6.1 software (StatSoft Inc., Tulsa, OK, USA).

[3] = tested on: Cryptococcus neoformans VKM Y-2755; format: cell-based
Protocol: as §3, §4, §5

Cr. neoformans cells [4] = experiment: Propidium iodide penetration, flow cytometry; format: cell-based, Cryptococcus neoformans; details: 28 °C, 2 h; for Penetration of propidium iodide (PI) into Cr. neoformans cells: peptide 300 µM in water, PI 2 µg/mL, FL2 (488/585 nm); for Number of Cr. neoformans cells in flow cytometry: peptide 300 µM
Protocol: as §1
For flow cytometry experiments with Cr. neoformans, the yeasts were grown on the YPD medium at 28 °C for 48 h. After that, the cells were centrifuged at 12,000× g for 3 min, washed with MiliQ water and incubated with the peptides dissolved in water at a concentration of 300 µM at 28 °C for 2 h. The cells were stained with propidium iodide by direct addition of the dye to the incubation medium (final concentration of 2 µg/mL) and measured on a NovoCyte Flow cytometer (Agilent, Santa Clara, CA, USA) using the channel FL2 (488 nm excitation and 585 nm emission). The sample without peptides was used as a control.

[5] = inhibition curves (Figure 4), highest tested concentration (300 µM)

| Compound | Membrane permeabilization of C. albicans cells (PI staining) (C. albicans cells) | Membrane permeabilization of Cr. neoformans cells (PI staining) (Cr. neoformans cells [1]) | Penetration of propidium iodide (PI) into Cr. neoformans cells (Cr. neoformans cells [4]) [%] | Number of Cr. neoformans cells in flow cytometry (Cr. neoformans cells [4]) | also measured |
| --- | --- | --- | --- | --- | --- |
| C[C@@H](O)[C@H](NC(=O)[C@H](CS)NC(=O)[C@H](Cc1ccccc1)NC(=O)[C@H](CS)NC(=O)[C@H](CCCNC(=N)N)NC(=O)[C@H](CCCNC(=N)N)NC(=O)[C@H](CCCNC(=N)N)NC(=O)[C@H](Cc1ccccc1)NC(=O)CNC(=O)[C@H](CCCNC(=N)N)NC(=O)[C@H](CS)NC(=O)[C@H](CCCCN)NC(=O)CN)C(=O)N[C@H](C(=O)N[C@@H](Cc1c[nH]cn1)C(=O)N[C@@H](CS)C(=O)N[C@@H](Cc1c[nH]cn1)C(=O)N[C@@H](Cc1c[nH]cn1)C(=O)O)[C@@H](C)O [DEFL1-16_65-82] (H-GKCRGFRRRCFCTTHCHH-OH; N-terminus and C-terminus assumed) | induced membrane permeabilization | induced membrane permeabilization |  |  |  |
| C[C@@H](O)[C@H](NC(=O)[C@H](CS)NC(=O)[C@H](CCCNC(=N)N)NC(=O)[C@H](CCCNC(=N)N)NC(=O)[C@H](Cc1ccccc1)NC(=O)[C@H](CCCCN)NC(=O)[C@H](CS)NC(=O)[C@H](Cc1ccc(O)cc1)NC(=O)CN)C(=O)N[C@@H](CS)C(=O)N[C@@H](CCC(N)=O)C(=O)N[C@@H](CCCNC(=N)N)C(=O)N[C@@H](CCC(=O)O)C(=O)N[C@@H](CS)C(=O)O [DEFL1-32_55-68] (H-GYCKFRRCTCQREC-OH; N-terminus and C-terminus assumed) | induced membrane permeabilization | induced membrane permeabilization |  |  | Inhibition of C. albicans at the highest tested concentration [2, 5]: 92% |
| CC(C)C[C@H](NC(=O)[C@H](CCCNC(=N)N)NC(=O)[C@H](Cc1c[nH]cn1)NC(=O)[C@H](CO)NC(=O)[C@H](CC(N)=O)NC(=O)[C@H](CS)NC(=O)[C@H](CCC(=O)O)NC(=O)CN)C(=O)N[C@@H](CCC(=O)O)C(=O)N[C@@H](CCCNC(=N)N)C(=O)N[C@@H](CCCCN)C(=O)N[C@@H](CS)C(=O)N[C@@H](Cc1ccccc1)C(=O)N[C@@H](CS)C(=O)N[C@@H](CCCCN)C(=O)N[C@@H](CCCNC(=N)N)C(=O)N[C@H](C(=O)N[C@@H](CS)C(=O)O)[C@@H](C)O [DEFL1-40_65-82] (H-GECNSHRLERKCFCKRTC-OH) |  |  |  |  | Pathogen inhibition, % (C. albicans) ([2]; 300 µM peptide, YPD-P medium, 30 °C, 24 h, absorbance 594 nm, vs control without peptide, triplicate, mean): failed to suppress |
| PARGRPYTGRA [DEFL4-37_91-101] |  |  |  |  | Activity against Cr. neoformans relative to DEFL4-37_90-102 ([3]; 300 µM (Figure 3), times less active): 10 times |
| AGHGKRYTGRG [HvDEFL4-1_67-77] | induced membrane permeabilization | induced membrane permeabilization | 37.84 | reduction in the number of Cr. neoformans cells |  |
| CC(C)[C@H](NC(=O)[C@H](CS)NC(=O)[C@H](CCCNC(=N)N)NC(=O)CNC(=O)CNC(=O)[C@H](CS)NC(=O)[C@H](CS)NC(=O)[C@@H]1CCCN1C(=O)[C@H](Cc1ccccc1)NC(=O)[C@@H](NC(=O)[C@@H](NC(=O)[C@H](CCCNC(=N)N)NC(=O)[C@H](CS)NC(=O)[C@@H](N)CCCCN)[C@@H](C)O)[C@@H](C)O)C(=O)O [Tk-AMP-K2_10-23] (H-KCRTTFPCCGGRCV-OH; N-terminus and C-terminus assumed) | induced membrane permeabilization | induced membrane permeabilization | 66.86 | reduction in the number of Cr. neoformans cells | Inhibition of Cr. neoformans at the highest tested concentration [3, 5]: complete inhibition |
